Source: patent US8318898B2, “Synthetic peptides for use as inhibitors of neurotransmitter secretion and as inducers of cellular relaxation” (Universite de Lausanne, priority 2005, dated 2012)
* marks the point of attachment. Decanoyl = CCCCCCCCCC(=O)*; CH2Cl = ClC*

Legend:
PC12-ES cells = test: Evoked neurotransmitter secretion by undifferentiated PC12-ES cells, furin inhibitor and arginine rich peptides; assay type: cell-based, rat; details: for inhibition of evoked neurotransmitter secretion by PC12-ES cells: potassium 80 mM, 15 minutes
PC12 cells [1] = assay type: cell-based, rat
Description: […]. Very little toxicity was present at 24 hours, and cytotoxicity at 48 hours was only slightly greater than at 24 hours. Cytotoxicity generally dipped to approximately 90% live cells when peptides were administered at 500 μM.

Recombinant furin [2] = target: T1, Recombinant furin (Homo sapiens, UniProt P09958); test: biochemical; assay type: biochemical
Description: To determine if the peptides described herein have an effect on the activity of PC enzymes which are involved in a condition or disorder such as fibrosis, the effect of the peptides on furin activity in vitro was measured as percent inhibition of cleavage of the furin substrate fluorogenic t-butyloxycarbonyl (Boc)-RVRR-7-amino-4-methylcoumarin (MCA).
All in vitro enzyme studies were performed at room temperature in a final volume of 50-100 μl in 96-well flat-bottom black plates. The buffer consisted of 100 mM HEPES, 1 mM CaCl2, 0.5% TritonX-100, and 1 mM 2-β-mercaptoethanol pH 7.5. Assays were performed using Boc-RVRR-MCA as fluorogenic substrate at 100 μM. Recombinant furin (0.8 U of activity) was incubated with Boc-RVRR-MCA in the presence or absence of varying concentrations of synthetic peptides D-9Rac/am (SEQ ID NO. 15), L-Bel1 (SEQ ID NO. 3), or L-9K (SEQ ID NO. 6). One unit of activity is defined as the amount of furin that can release 1 μmol of MCA from the fluorogenic Boc-RVRR-MCA per min at 30° C. The release of highly fluorescent 7-amino 4-methyl coumarin (MCA) from the Boc-RVRR-MCA was monitored by a spectrofluorometer instrument at excitation and emission wavelengths of 370 nm/460 nm. […]

furin = target: T2, furin (Rattus norvegicus, UniProt P23377); assay type: biochemical; details: EDTA 50 mM, EGTA 50 mM, Dec-RVKR-CMK 50 μM
T2 construct: Furin activity was constitutively detected in PC12-ES cells; endogenous in cells; host or cells: PC12-ES cells (lysate)
Description: To monitor the intracellular furin activity, 80% confluent PC12-ES cells were washed twice with ice-cold phosphate-buffered saline (PBS1×) by centrifugation at 800×g for 5 minutes at 4° C., resuspended in 100 mM HEPES, 1 mM CaCl2, 0.5% TritonX-100, and 1 mM 2-β-mercaptoethanol, pH 7.5, sonicated 6 times at 4° C. for 10 seconds, and then centrifuged at 8000×g for 20 minutes at 4° C. The protein concentration in the samples was determined using a bicinchonic acid protein assay kit (Pierce Chemical Co.).
Intracellular furin activity was measured with a furin-specific fluorogenic substrate, t-butyloxycarbonyl (Boc)-[…]-7-amino-4-methylcoumarin (MCA). Briefly, the cell lysate (20 μg-60 μg of protein) prepared as described above was incubated with 100 μM Boc-RVRR-MCA in a 96-well flat-bottom black plate for at least 6 hours at room temperature and fluorescence measured by excitation at 365 nm and emission at 450 nm.

Recombinant furin [3] = target: T1, Recombinant furin; details: CALBIOCHEM; cited from earlier work
PC12 cells [4] = test: Inhibition of [3H]norepinephrine neurosecretion by PC12 cells; assay type: cell-based, rat
Description: Using the neurosecretion assay described above, peptides fused to the TAT-PTD (L-TAT) were tested for inhibition of neurotransmitters and compared to use of L-TAT alone (SEQ ID NO: 3). In vitro screening for synthetic peptides capable of efficiently and selectively blocking neurotransmitter release in the PC12 cell line grown under defined conditions was performed.
PC12 cells were washed with DMEM-WM (Dulbecco's Modified Eagle Medium (GIBCO cat. no. 31968) completed with 25 units of penicillin and streptomycin each) and loaded for 1-2 h with [^3H] norepinephrine (NE; 0.5 μCi/ml) in DMEM-CM (DMEM-WM complemented with 6% horse serum and 6% fetal calf serum). Cells were washed for 1 h with DMEM-WM, and then washed 2 times at 5-minute intervals. Basal release was determined by a 15-minutes incubation with CaSB-glucose 5 mM K^+ (CaSB-glucose: 140 mM NaCl, 5 mM KCl, 2 mM CaCl2, 11 mM glucose, [pH 7.4]). The peptides were added to the cells at defined concentrations after loading with NE but before induction of secretion. Cells were depolarized with 85 mM K^+ (CaSB-glucose with Na^+ reduced accordingly) for 15 minutes to determine stimulated release. Superfusate (1 ml) was removed to tubes. Adherent cells were solubilized in CaSB-glucose-0.1% Triton (1 ml/well). The quantities of released and non-released radiolabeled neurotransmitter were determined by liquid scintillation counting of cleared superfusates and cell lysates, respectively. Total uptake was calculated by addition of released and retained radioactivity, and the percentage release was as calculated (released counts/total uptake counts)×100. Results were also expressed as percent inhibition of neurosecretion.

[5] = 10% concentration in oil/water emulsion, 30-day treatment; cited from earlier work
PC-12 cells = test: Actin cytoskeleton organization, phalloidin-TRITC staining; assay type: cell-based, rat; details: 2 to 10 μM, 30 minutes, labeled or unlabeled
Description: Slides with PC-12 cells were prepared as stated previously for localization studies. Briefly, cells were exposed to FITC-labeled or unlabeled peptides, at various concentrations, for 30 minutes, fixed and then permeabilized. Subsequently, F-actin was fluorescently labeled with phalloidin-Tetramethyl Rhodamine Iso-Thiocyanate (TRITC) (Sigma Aldrich) conjugate, diluted on saponin buffer (0.25 μg/ml), and nuclear staining with DAPI dihydrochloride (Sigma Aldrich) (0.02 μg/ml), at room temperature for maximum 30 minutes. Finally, slides were mounted and sealed, and stored at 4° C. protected from light. The effect of the peptides to actin polymerization was analyzed by confocal microscopy, as described before.

rat lung fibroblast (LF) = test: Cell contraction/relaxation on wrinkling silicone substrate, live videomicroscopy; assay type: cell-based; details: 10 μM and 50 μM
Description: To study the effect(s) of the peptides on muscle cells, which associate with neurosecretory cells at neuromuscular junctions, peptides were cultured with rat lung fibroblast (LF) grown over wrinkling substrate (silicon) which can mimic the effects of contraction. These cells have a myofibroblastic phenotype, e.g., production of TGF-β, which make them suitable for cellular contraction/relaxation studies.
Wrinkling silicone substrates were prepared as essentially described previously (Harris, et al., Science. 208:177-179, 1980; Hinz, et al., Mol Biol Cell. 12:2730-41, 2001). Briefly, 50 μl of silicone (poly dimethyl siloxane; 30.000 centistokes, Dow Corning, Midland, Mich.) were deposited onto a 35 mm round glass coverslip at the bottom of a self-made observation chamber, which was centrifuged at 1.000 rpm for 2 minutes to spread the viscous fluid. The silicone surface was then crosslinked by passing it through a Bunsen flame; a flaming time of 1 second produced a surface stiffness that restricted wrinkle formation to fibroblasts with high contractile force (Hinz et al., supra). The polymerized silicone surface was finally coated with 10 μg/ml collagen type I (Sigma) for 2 hours at 37° C. Lung fibroblast cells were seeded at a density of 3.5×10^3 cells/cm^2 and cultured for 1-2 days before the experiment. […]

T1 sequence (P09958 108-794): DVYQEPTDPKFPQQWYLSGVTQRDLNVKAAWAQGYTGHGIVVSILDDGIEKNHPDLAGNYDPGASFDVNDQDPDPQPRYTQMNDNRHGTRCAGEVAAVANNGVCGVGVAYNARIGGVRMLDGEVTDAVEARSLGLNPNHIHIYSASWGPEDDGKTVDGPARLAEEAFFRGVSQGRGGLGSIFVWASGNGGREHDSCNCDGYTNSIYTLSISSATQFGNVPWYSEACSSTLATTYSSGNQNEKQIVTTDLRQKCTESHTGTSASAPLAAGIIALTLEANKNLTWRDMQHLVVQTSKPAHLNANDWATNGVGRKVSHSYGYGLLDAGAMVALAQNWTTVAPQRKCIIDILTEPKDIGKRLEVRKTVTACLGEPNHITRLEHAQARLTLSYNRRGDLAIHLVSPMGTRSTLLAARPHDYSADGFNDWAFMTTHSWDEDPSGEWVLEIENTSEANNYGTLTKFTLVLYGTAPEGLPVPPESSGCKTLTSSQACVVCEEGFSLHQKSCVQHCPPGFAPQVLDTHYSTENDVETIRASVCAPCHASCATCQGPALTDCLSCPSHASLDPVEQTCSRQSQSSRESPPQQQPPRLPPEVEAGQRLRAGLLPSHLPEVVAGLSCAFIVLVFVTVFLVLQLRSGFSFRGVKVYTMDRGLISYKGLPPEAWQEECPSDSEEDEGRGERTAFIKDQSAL
T2 sequence (P23377 108-793): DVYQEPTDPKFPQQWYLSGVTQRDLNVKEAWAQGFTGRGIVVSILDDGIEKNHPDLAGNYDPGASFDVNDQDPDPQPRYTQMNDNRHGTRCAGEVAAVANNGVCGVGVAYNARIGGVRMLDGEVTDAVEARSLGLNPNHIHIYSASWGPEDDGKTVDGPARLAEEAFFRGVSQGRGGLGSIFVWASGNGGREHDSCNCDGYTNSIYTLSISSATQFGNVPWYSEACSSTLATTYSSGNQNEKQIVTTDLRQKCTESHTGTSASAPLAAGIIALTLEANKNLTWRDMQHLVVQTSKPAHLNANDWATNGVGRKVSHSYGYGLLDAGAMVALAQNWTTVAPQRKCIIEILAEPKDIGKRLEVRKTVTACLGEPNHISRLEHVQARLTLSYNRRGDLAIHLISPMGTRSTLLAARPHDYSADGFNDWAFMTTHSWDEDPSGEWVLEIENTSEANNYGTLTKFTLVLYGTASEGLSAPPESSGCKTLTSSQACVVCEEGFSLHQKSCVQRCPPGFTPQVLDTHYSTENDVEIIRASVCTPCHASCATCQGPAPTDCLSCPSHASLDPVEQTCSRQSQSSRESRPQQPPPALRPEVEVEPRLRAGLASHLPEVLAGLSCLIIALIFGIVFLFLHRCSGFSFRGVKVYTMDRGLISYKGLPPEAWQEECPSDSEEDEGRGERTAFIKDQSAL

Decanoyl-Arg-Val-Lys-Arg-CMK (Decanoyl-RVKR-CH2Cl) [FI-I, reference compound]
dose dependence of inhibition of evoked secretion (PC12-ES cells): dose dependent
inhibition of evoked neurotransmitter secretion by PC12-ES cells (PC12-ES cells; 10 μM): 12.6%
inhibition of evoked neurotransmitter secretion by PC12-ES cells (PC12-ES cells; 100 μM): 50%
cytotoxicity (MTT) (PC12 cells [1]): no marked cytotoxicity
inhibition of in vitro furin activity (in words) (Recombinant furin [2]; Boc-RVRR-MCA 100 μM as substrate): inhibited
inhibition of intracellular furin activity (in words) (furin): inhibited
Ki (Recombinant furin [3]): 1 nM

Ac-Glu-Glu-Met-Gln-Arg-Arg-NH2 (Ac-EEMQRR-NH2) [L-Argireline]
inhibition of secretion (PC12 cells [4]; 50 μM (mixture: 50 μM each)): no inhibition
reduced wrinkle depth [5]: up to 30%

9K-L: SEQ ID NO: 6 (GYGKKKKKKKKKG; Synthetic peptide 9K-L)
inhibition of neurotransmitter-evoked secretion (PC12 cells [4]; concentration not given, peptide alone): approximately 20%
concentration for complete blockade of cleavage of Boc-RVRR-MCA by furin (Recombinant furin [2]): > 3.5 µM
effect on actin content and organization (PC-12 cells): No effect
relaxing effect on lung myofibroblasts on silicon substrate (rat lung fibroblast (LF)): not observed
